Data as given in patent US8436036B2, “Diaryl ethers” (Janssen R&D Ireland, priority 2009, dated 2013).

Assays:
[1] = system: HCV replicon; assay: HCV replicon assay (Huh-Luc cells, luciferase read-out); type: cell-based, HCV type Ib; conditions: Hepatitis C virus, 72 h, three days incubation, luciferase activity
Source text: The compounds of formula (I) were examined for inhibitory activity in the HCV replicon. This cellular assay is based on a bicistronic expression construct, as described by Lohmann et al. (1999) Science vol. 285 pp. 110-113 with modifications described by Krieger et al. (2001) Journal of Virology 75: 4614-4624, in a multi-target screening strategy.
In essence, the method was as follows:
The assay utilized the stably transfected cell line Huh-7 luc/neo (hereafter referred to as Huh-Luc). This cell line harbors an RNA encoding a bicistronic expression construct comprising the wild type NS3-NS5B regions of HCV type Ib translated from an Internal Ribosome Entry Site (IRES) from encephalomyocarditis virus (EMCV), preceded by a reporter portion (FfL-luciferase), and a selectable marker portion (neo^R, neomycine phosphotransferase). The construct is flanked by 5′ and 3′ NTRs (non-translated regions) from HCV type Ib. Continued culture of the replicon cells in the presence of G418 (neo^R) is dependent on the replication of the HCV RNA. The stably transfected replicon cells that express HCV RNA, which replicates autonomously and to high levels, encoding inter alia luciferase, were used for screening the antiviral compounds.
The replicon cells were plated in 384 well plates in the presence of the test and control compounds which were added in various concentrations. Following an incubation of three days, HCV replication was measured by assaying luciferase activity (using standard luciferase assay substrates and reagents and a Perkin Elmer ViewLux™ ultraHTS microplate imager). Replicon cells in the control cultures have high luciferase expression in the absence of any inhibitor. The inhibitory activity of the compound on luciferase activity was monitored on the Huh-Luc cells, enabling a dose-response curve for each test compound. EC50 values were then calculated, which represent the amount of compound required to decrease the level of detected luciferase activity by 50%, or more specifically, to reduce the ability of the genetically linked HCV replicon RNA to replicate.

[2] = Cytotoxicity (Huh-7); type: cell-based; conditions: human, Huh-7 cells
Source text: The in vitro antiviral activity against HCV of the compounds of formula I can be tested in a cellular HCV replicon system based on Lohmann et al. (1999) Science 285:110-113, with the further modifications described by Krieger et al. (2001) Journal of Virology 75: 4614-4624 (incorporated herein by reference), which is further exemplified in the examples section. This model, while not a complete infection model for HCV, is widely accepted as the most robust and efficient model of autonomous HCV RNA replication currently available. It will be appreciated that it is important to distinguish between compounds that specifically interfere with HCV functions from those that exert cytotoxic or cytostatic effects in the HCV replicon model, and as a consequence cause a decrease in HCV RNA or linked reporter enzyme concentration. Assays are known in the field for the evaluation of cellular cytotoxicity based for example on the activity of mitochondrial enzymes using fluorogenic redox dyes such as resazurin. Furthermore, cellular counter screens exist for the evaluation of non-selective inhibition of linked reporter gene activity, such as firefly luciferase. Appropriate cell types can be equipped by stable transfection with a luciferase reporter gene whose expression is dependent on a constitutively active gene promoter, and such cells can be used as a counter-screen to eliminate non-selective inhibitors.

Question: What does the source list for `O=C(Cc1ccccc1OC(F)(F)F)N1CCC[C@H]1c1nc(-c2cccc(Oc3ccc(-c4cnc([C@@H]5CCCN5C(=O)Cc5ccccc5OC(F)(F)F)[nH]4)cc3)c2)c[nH]1` [Example 24]?
Answer: EC50 [1]: 14.4 nM; CC50 [2]: > 31.5 µM

Question: Which EC50 [1] does the source give for `COC(=O)NC(C(=O)N1CCC[C@H]1c1nc(-c2ccc(Oc3ccc(OC)c(-c4cnc([C@@H]5CCCN5C(=O)C(NC(=O)OC)c5ccccc5)[nH]4)c3)cc2)c[nH]1)c1ccccc1` (stereo partly shown) [Example 46] here?
Answer: > 980 nM

Question: And the CC50 [2]?
Answer: > 98.4 µM

Question: What does the source list for `COc1c(F)cc(CC(=O)N2CCC[C@H]2c2nc(-c3cccc(Oc4ccc(-c5cnc([C@@H]6CCCN6C(=O)Cc6cc(F)c(OC)c(F)c6)[nH]5)cc4)c3)c[nH]2)cc1F` [Example 25]?
Answer: EC50 [1]: 3390 nM; CC50 [2]: > 31.5 µM

Question: For `COC(=O)N[C@H](C(=O)N1CCC[C@H]1c1nc(-c2ccc(Oc3ccc(OC)c(-c4c[nH]c([C@@H]5CCCN5C(=O)[C@@H](NC(=O)OC)C(C)C)n4)c3)cc2)c[nH]1)C(C)C` [Example 45], which EC50 [1] is on record?
Answer: 62.7 nM

Question: And the CC50 [2]?
Answer: 1.66 µM

Question: For `O=C(c1ccc(F)cc1)N1CCC[C@H]1c1nc(-c2cccc(Oc3ccc(-c4cnc([C@@H]5CCCN5C(=O)c5ccc(F)cc5)[nH]4)cc3)c2)c[nH]1` [Example 34], which EC50 [1] is on record?
Answer: 4340 nM

Question: What about the CC50 [2] of the same molecule?
Answer: > 31.5 µM

Question: For `Cc1cccc(CC(=O)N2CCC[C@H]2c2nc(-c3cccc(Oc4ccc(-c5cnc([C@@H]6CCCN6C(=O)Cc6cccc(C)c6)[nH]5)cc4)c3)c[nH]2)c1` [Example 11, 2-m-tolyl-1-((2S)-2-(5-(4-(3-(2-((S)-1-(2-m-tolylacetyl)pyrrolidin-2-yl)-1H-imidazol-4-yl)phenoxy)phenyl)-1H-imidazol-2-yl)pyrrolidin-1-yl)ethanone], which EC50 [1] is on record?
Answer: 6180 nM

Question: And the CC50 [2]?
Answer: > 31.5 µM

Question: With `O=C(c1ccoc1)N1CCC[C@H]1c1nc(-c2cccc(Oc3ccc(-c4cnc([C@@H]5CCCN5C(=O)c5ccoc5)[nH]4)cc3)c2)c[nH]1` [Example 32] as the molecule, how does the EC50 [1] read?
Answer: 978 nM

Question: What about the CC50 [2] of the same molecule?
Answer: > 31.5 µM

Question: Which results are given for `O=C([C@H]1CCCO1)N1CCC[C@H]1c1nc(-c2cccc(Oc3ccc(-c4cnc([C@@H]5CCCN5C(=O)[C@H]5CCCO5)[nH]4)cc3)c2)c[nH]1` [Example 22]?
Answer: EC50 [1]: 1090 nM; CC50 [2]: > 31.5 µM

Question: With `Cc1nc(C(=O)N2CCC[C@H]2c2nc(-c3cccc(Oc4ccc(-c5cnc([C@@H]6CCCN6C(=O)c6nc(C)oc6C)[nH]5)cc4)c3)c[nH]2)c(C)o1` [Example 33] as the molecule, how does the EC50 [1] read?
Answer: 864 nM

Question: What about the CC50 [2] of the same molecule?
Answer: > 31.5 µM

Question: For `COc1cccc(CCC(=O)N2CCC[C@H]2c2nc(-c3cccc(Oc4ccc(-c5cnc([C@@H]6CCCN6C(=O)CCc6cccc(OC)c6)[nH]5)cc4)c3)c[nH]2)c1` [Example 27], which EC50 [1] is on record?
Answer: 3530 nM

Question: What about the CC50 [2] of the same molecule?
Answer: > 31.5 µM

Question: What does the source list for `CN(C)CCC(=O)N1CCC[C@H]1c1nc(-c2cccc(Oc3ccc(-c4cnc([C@@H]5CCCN5C(=O)CCN(C)C)[nH]4)cc3)c2)c[nH]1` [Example 41]?
Answer: EC50 [1]: 1240 nM; CC50 [2]: > 31.5 µM

Question: With `O=C(C(c1ccccc1)n1ccnc1)N1CCC[C@H]1c1nc(-c2cccc(Oc3ccc(-c4cnc([C@@H]5CCCN5C(=O)C(c5ccccc5)n5ccnc5)[nH]4)cc3)c2)c[nH]1` (stereo partly shown) [Example 35] as the molecule, how does the EC50 [1] read?
Answer: 4.72 nM

Question: And the CC50 [2]?
Answer: > 31.5 µM

Question: For `COC(=O)N[C@H](C(=O)N1CCC[C@H]1c1nc(-c2cccc(Oc3ccc(-c4cnc([C@@H]5CCCN5C(=O)[C@@H](NC(=O)OC)C(C)C)[nH]4)cc3)c2)c[nH]1)C(C)C` [Example 42], which EC50 [1] is on record?
Answer: 0.0433 nM

Question: And the CC50 [2]?
Answer: 18.6 µM

Question: For `O=C(C(=O)N1CCC[C@H]1c1nc(-c2cccc(Oc3ccc(-c4cnc([C@@H]5CCCN5C(=O)C(=O)c5ccccc5)[nH]4)cc3)c2)c[nH]1)c1ccccc1` [Example 20], which EC50 [1] is on record?
Answer: 58.2 nM

Question: And the CC50 [2]?
Answer: > 31.5 µM

Question: With `COc1ccc(Oc2ccc(-c3c[nH]c([C@@H]4CCCN4C(=O)[C@@H](c4ccccc4)N(C)C)n3)cc2)cc1-c1c[nH]c([C@@H]2CCCN2C(=O)[C@@H](c2ccccc2)N(C)C)n1` [Example 47] as the molecule, how does the EC50 [1] read?
Answer: 0.705 nM

Question: Which results are given for `O=C(Cc1ccccc1)N1CCC[C@H]1c1ncc(-c2ccc(Oc3ccc(-c4cnc([C@@H]5CCCN5C(=O)Cc5ccccc5)[nH]4)cc3)cc2)[nH]1` [Example 49]?
Answer: EC50 [1]: 1120 nM; CC50 [2]: > 31.5 µM

Question: Which results are given for `CC(C)[C@@H](C(=O)N1CCC[C@H]1c1nc(-c2cccc(Oc3ccc(-c4cnc([C@@H]5CCCN5C(=O)[C@H](C(C)C)N(C)C)[nH]4)cc3)c2)c[nH]1)N(C)C` [Example 31]?
Answer: EC50 [1]: 1160 nM; CC50 [2]: 2.87 µM

Question: Which EC50 [1] does the source give for `O=C(Cc1cccnc1)N1CCC[C@H]1c1nc(-c2cccc(Oc3ccc(-c4cnc([C@@H]5CCCN5C(=O)Cc5cccnc5)[nH]4)cc3)c2)c[nH]1` [Example 18] here?
Answer: 54.3 nM

Question: What about the CC50 [2] of the same molecule?
Answer: > 31.5 µM

Question: With `O=C(CCc1cccnc1)N1CCC[C@H]1c1nc(-c2cccc(Oc3ccc(-c4cnc([C@@H]5CCCN5C(=O)CCc5cccnc5)[nH]4)cc3)c2)c[nH]1` [Example 29] as the molecule, how does the EC50 [1] read?
Answer: 3.98 nM

Question: And the CC50 [2]?
Answer: > 31.5 µM

Question: Which results are given for `CCN(CC)[C@@H](C(=O)N1CCC[C@H]1c1nc(-c2cccc(Oc3ccc(-c4cnc([C@@H]5CCCN5C(=O)[C@@H](c5ccccc5)N(CC)CC)[nH]4)cc3)c2)c[nH]1)c1ccccc1` [Example 44]?
Answer: EC50 [1]: 0.12 nM; CC50 [2]: 0.78 µM

Question: What does the source list for `O=C(Cc1ccc2c(c1)OCO2)N1CCC[C@H]1c1nc(-c2cccc(Oc3ccc(-c4cnc([C@@H]5CCCN5C(=O)Cc5ccc6c(c5)OCO6)[nH]4)cc3)c2)c[nH]1` [Example 19]?
Answer: EC50 [1]: 1070 nM; CC50 [2]: > 31.5 µM

Question: With `CN(C)C(C(=O)N1CCC[C@H]1c1nc(-c2cccc(Oc3ccc(-c4cnc([C@@H]5CCCN5C(=O)C(c5ccc(Cl)cc5)N(C)C)[nH]4)cc3)c2)c[nH]1)c1ccc(Cl)cc1` (stereo partly shown) [Example 30] as the molecule, how does the EC50 [1] read?
Answer: 3.62 nM

Question: What about the CC50 [2] of the same molecule?
Answer: 4.6 µM

Question: For `CN(C)[C@@H](C(=O)N1CCC[C@H]1c1ncc(-c2ccc(Oc3cccc(-c4cnc([C@@H]5CCCN5C(=O)[C@@H](c5ccccc5)N(C)C)[nH]4)c3)cc2)[nH]1)c1ccccc1` [Example 43], which EC50 [1] is on record?
Answer: 0.114 nM

Question: What about the CC50 [2] of the same molecule?
Answer: 0.7 µM

Question: For `CC(C)C[C@@H](C(=O)N1CCC[C@H]1c1nc(-c2cccc(Oc3ccc(-c4cnc([C@@H]5CCCN5C(=O)[C@H](CC(C)C)N(C)C)[nH]4)cc3)c2)c[nH]1)N(C)C` [Example 36], which EC50 [1] is on record?
Answer: 3030 nM

Question: What about the CC50 [2] of the same molecule?
Answer: 7.76 µM

Question: With `O=C(Cc1ccccc1)N1CCC[C@H]1c1nc(-c2cccc(Oc3ccc(-c4cnc([C@@H]5CCCN5C(=O)Cc5ccccc5)[nH]4)cc3)c2)c[nH]1` [Example 9, 2-phenyl-1-((S)-2-(5-(4-(3-(2-((S)-1-(2-phenylacetyl)pyrrolidin-2-yl)-1H-imidazol-4-yl)phenoxy)phenyl)-1H-imidazol-2-yl)pyrrolidin-1-yl)ethanone] as the molecule, how does the EC50 [1] read?
Answer: 77 nM

Question: And the CC50 [2]?
Answer: > 31.5 µM

Question: Which results are given for `O=C(C(O)c1ccccc1)N1CCC[C@H]1c1nc(-c2cccc(Oc3ccc(-c4cnc([C@@H]5CCCN5C(=O)C(O)c5ccccc5)[nH]4)cc3)c2)c[nH]1` (stereo partly drawn) [Example 10, 2-hydroxy-1-((2S)-2-(5-(4-(3-(2-((2S)-1-(2-hydroxy-2-phenylacetyl)-pyrrolidin-2-yl)-1H-imidazol-4-yl)phenoxy)phenyl)-1H-imidazol-2-yl)pyrrolidin-1-yl)-2-phenylethanone]?
Answer: EC50 [1]: < 0.5 nM; CC50 [2]: 4.86 µM

Question: Which EC50 [1] does the source give for `O=C(CCS(=O)(=O)c1ccccc1)N1CCC[C@H]1c1nc(-c2cccc(Oc3ccc(-c4cnc([C@@H]5CCCN5C(=O)CCS(=O)(=O)c5ccccc5)[nH]4)cc3)c2)c[nH]1` [Example 21] here?
Answer: 3700 nM

Question: What about the CC50 [2] of the same molecule?
Answer: > 31.5 µM

Question: For `O=C(c1ccccn1)N1CCC[C@H]1c1nc(-c2cccc(Oc3ccc(-c4cnc([C@@H]5CCCN5C(=O)c5ccccn5)[nH]4)cc3)c2)c[nH]1` [Example 37], which EC50 [1] is on record?
Answer: 15400 nM

Question: What about the CC50 [2] of the same molecule?
Answer: > 31.5 µM

Question: Which results are given for `O=C(c1cccnc1)N1CCC[C@H]1c1nc(-c2cccc(Oc3ccc(-c4cnc([C@@H]5CCCN5C(=O)c5cccnc5)[nH]4)cc3)c2)c[nH]1` [Example 38]?
Answer: EC50 [1]: 1270 nM; CC50 [2]: > 31.5 µM

Question: What does the source list for `O=C(CC1CCCCC1)N1CCC[C@H]1c1nc(-c2cccc(Oc3ccc(-c4cnc([C@@H]5CCCN5C(=O)CC5CCCCC5)[nH]4)cc3)c2)c[nH]1` [Example 28]?
Answer: EC50 [1]: 5470 nM; CC50 [2]: > 31.5 µM

Question: What does the source list for `COC(=O)N[C@H](C(=O)N1CCC[C@H]1c1ncc(-c2ccc(Oc3cccc(-c4cnc([C@@H]5CCCN5C(=O)[C@@H](NC(=O)OC)[C@@H](C)OC)[nH]4)c3)cc2)[nH]1)[C@@H](C)OC` [Example 39]?
Answer: EC50 [1]: 0.0794 nM; CC50 [2]: > 31.5 µM
